Reference: patent US20220323406A1, “METHODS AND COMPOSITIONS FOR DIFFERENTIATING STEM CELLS” (Massachusetts Institute of Technology, priority 2019, published 2022)

How the values were obtained:
[1] = system: ENR+CD organoids (ISC to Paneth cell differentiation); assay: Primary screen: CCh-stimulated lysozyme secretion LYZ.S, 2.5-D 384-well ENR+CD organoid differentiation; assay type: cell-based, mouse; conditions: primary screen
Excerpt: (§1) High-throughput screening.

ENR+CD organoids = assay: Primary screen: ATP (CellTiter-Glo 3D, CTG) cell number/viability, 2.5-D 384-well ENR+CD organoids; conditions: primary screen; for Z.CTG: standard z score;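 on all read-outs here: compounds given at plating and again on day 3 over a 6-day differentiation from ENR+CV stem-cell-enriched precursors, ATP measured on day 6, plate median as control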
[2] = system: ENR+CD organoids (ISC to Paneth cell differentiation); assay: Primary screen: basal (non-stimulated) lysozyme secretion LYZ.NS, 2.5-D 384-well ENR+CD organoid differentiation; assay type: cell-based, mouse; conditions: primary screen; for Z.LYZ.NS: standard z score
Excerpt: as §1

[3] = 1st dose row of the treatment (0.08 uM by row order; dose not reprinted)
[4] = 2nd dose row of the treatment (0.40 uM by row order; dose not reprinted)
[5] = 3rd dose row of the treatment (2.00 uM by row order; dose not reprinted)
[6] = 4th dose row of the treatment (10.00 uM by row order; dose not reprinted)
[7] = dose 0.08 uM, FC vs plate median
[8] = dose 0.40 uM, FC vs plate median
[9] = dose 2.00 uM, FC vs plate median
[10] = dose 10.00 uM, FC vs plate median

Question: For `NC(=O)c1ccc(I)c([N+](=O)[O-])c1` [Iniparib (B5I-201)], which “Dose.FC.LYZ.S (log2 fold change)” value ([1]; dose 0.08 uM) is on record?
Answer: 0.032

Question: And the “Dose.FC.CTG (log2 fold change)” value (ENR+CD organoids; dose 0.08 uM)?
Answer: 0.339

Question: And the “Z.CTG (standard z score)” value (ENR+CD organoids; dose 0.08 uM)?
Answer: 0.810

Question: What about the “Dose.FC.LYZ.NS (log2 fold change)” value ([2]; dose 0.08 uM) of the same compound?
Answer: 0.042

Question: And the “Z.LYZ.NS (standard z score)” value ([2]; dose 0.08 uM)?
Answer: 0.364

Question: With `CC(C)N(CC[C@H](c1ccccc1)c1cc(CO)ccc1O)C(C)C` [5-hydroxymethyl Tolterodine (PNU 200577, 5-HMT, 5-HM)] as the compound, how does the “SSMD.LYZ.S_Rep (strictly standardized mean difference)” value [1, 3] read?
Answer: 0.460

Question: What about the “Z.LYZ.S (standard z score)” value [1, 3] of the same compound?
Answer: 0.417

Question: What about the “SSMD.LYZ.S_Rep (strictly standardized mean difference)” value [1, 4] of the same compound?
Answer: 0.266

Question: What about the “Z.LYZ.S (standard z score)” value [1, 4] of the same compound?
Answer: 0.231

Question: What about the “SSMD.LYZ.S_Rep (strictly standardized mean difference)” value [1, 5] of the same compound?
Answer: 0.174

Question: What about the “Z.LYZ.S (standard z score)” value [1, 5] of the same compound?
Answer: 0.152

Question: And the “SSMD.LYZ.S_Rep (strictly standardized mean difference)” value [1, 6]?
Answer: −0.042

Question: What about the “Z.LYZ.S (standard z score)” value [1, 6] of the same compound?
Answer: −0.044

Question: And the Dose.FC.LYZ.S ([1]; dose 0.08 uM)?
Answer: 0.065 log2 fold change

Question: And the Dose.FC.LYZ.S ([1]; dose 0.40 uM)?
Answer: 0.036 log2 fold change

Question: What about the Dose.FC.LYZ.S ([1]; dose 2.00 uM) of the same compound?
Answer: 0.023 log2 fold change

Question: What about the Dose.FC.LYZ.S ([1]; dose 10.00 uM) of the same compound?
Answer: −0.007 log2 fold change

Question: And the “SSMD.CTG.Rep (strictly standardized mean difference)” value (ENR+CD organoids; [3])?
Answer: −0.118

Question: And the “SSMD.CTG.Rep (strictly standardized mean difference)” value (ENR+CD organoids; [4])?
Answer: 0.291

Question: What about the “SSMD.CTG.Rep (strictly standardized mean difference)” value (ENR+CD organoids; [5]) of the same compound?
Answer: 0.114

Question: What about the “SSMD.CTG.Rep (strictly standardized mean difference)” value (ENR+CD organoids; [6]) of the same compound?
Answer: 0.061

Question: And the Dose.FC.CTG (ENR+CD organoids; dose 0.08 uM)?
Answer: −0.062 log2 fold change

Question: What about the “Z.CTG (standard z score)” value (ENR+CD organoids; dose 0.08 uM) of the same compound?
Answer: −0.149

Question: What about the Dose.FC.CTG (ENR+CD organoids; dose 0.40 uM) of the same compound?
Answer: 0.087 log2 fold change

Question: And the “Z.CTG (standard z score)” value (ENR+CD organoids; dose 0.40 uM)?
Answer: 0.207

Question: And the Dose.FC.CTG (ENR+CD organoids; dose 2.00 uM)?
Answer: 0.034 log2 fold change

Question: What about the “Z.CTG (standard z score)” value (ENR+CD organoids; dose 2.00 uM) of the same compound?
Answer: 0.082

Question: And the Dose.FC.CTG (ENR+CD organoids; dose 10.00 uM)?
Answer: 0.017 log2 fold change

Question: And the “Z.CTG (standard z score)” value (ENR+CD organoids; dose 10.00 uM)?
Answer: 0.040

Question: And the “SSMD.LYZ.NS_Rep (strictly standardized mean difference)” value [2, 3]?
Answer: 0.915

Question: What about the “SSMD.LYZ.NS_Rep (strictly standardized mean difference)” value [2, 4] of the same compound?
Answer: 0.760

Question: And the “SSMD.LYZ.NS_Rep (strictly standardized mean difference)” value [2, 5]?
Answer: 0.947

Question: What about the “SSMD.LYZ.NS_Rep (strictly standardized mean difference)” value [2, 6] of the same compound?
Answer: 0.223

Question: And the Dose.FC.LYZ.NS ([2]; dose 0.08 uM)?
Answer: 0.184 log2 fold change

Question: What about the “Z.LYZ.NS (standard z score)” value ([2]; dose 0.08 uM) of the same compound?
Answer: 1.599

Question: And the Dose.FC.LYZ.NS ([2]; dose 0.40 uM)?
Answer: 0.076 log2 fold change

Question: And the “Z.LYZ.NS (standard z score)” value ([2]; dose 0.40 uM)?
Answer: 0.665

Question: And the Dose.FC.LYZ.NS ([2]; dose 2.00 uM)?
Answer: 0.154 log2 fold change

Question: And the “Z.LYZ.NS (standard z score)” value ([2]; dose 2.00 uM)?
Answer: 1.344

Question: And the Dose.FC.LYZ.NS ([2]; dose 10.00 uM)?
Answer: 0.034 log2 fold change

Question: What about the “Z.LYZ.NS (standard z score)” value ([2]; dose 10.00 uM) of the same compound?
Answer: 0.293

Question: `COc1ccc(-n2nc(C(N)=O)c3c2C(=O)N(c2ccc(N4CCCCC4=O)cc2)CC3)cc1` [Apixaban] was tested. Which Dose.FC.LYZ.S ([1]; dose 0.08 uM) did it give?
Answer: 0.081 log2 fold change

Question: What about the Dose.FC.LYZ.S ([1]; dose 0.40 uM) of the same compound?
Answer: 0.029 log2 fold change

Question: What about the Dose.FC.LYZ.S ([1]; dose 2.00 uM) of the same compound?
Answer: 0.051 log2 fold change

Question: And the Dose.FC.LYZ.S ([1]; dose 10.00 uM)?
Answer: −0.096 log2 fold change

Question: And the Dose.FC.CTG (ENR+CD organoids; dose 0.08 uM)?
Answer: −0.089 log2 fold change

Question: What about the Dose.FC.CTG (ENR+CD organoids; dose 0.40 uM) of the same compound?
Answer: 0.111 log2 fold change

Question: And the Dose.FC.CTG (ENR+CD organoids; dose 2.00 uM)?
Answer: −0.060 log2 fold change

Question: And the Dose.FC.CTG (ENR+CD organoids; dose 10.00 uM)?
Answer: −0.077 log2 fold change

Question: What about the Dose.FC.LYZ.NS ([2]; dose 0.08 uM) of the same compound?
Answer: 0.004 log2 fold change

Question: And the “Z.LYZ.NS (standard z score)” value ([2]; dose 0.08 uM)?
Answer: 0.035

Question: And the Dose.FC.LYZ.NS ([2]; dose 0.40 uM)?
Answer: −0.030 log2 fold change

Question: And the “Z.LYZ.NS (standard z score)” value ([2]; dose 0.40 uM)?
Answer: −0.260

Question: And the Dose.FC.LYZ.NS ([2]; dose 2.00 uM)?
Answer: 0.029 log2 fold change

Question: What about the “Z.LYZ.NS (standard z score)” value ([2]; dose 2.00 uM) of the same compound?
Answer: 0.253

Question: And the Dose.FC.LYZ.NS ([2]; dose 10.00 uM)?
Answer: −0.082 log2 fold change

Question: And the “Z.LYZ.NS (standard z score)” value ([2]; dose 10.00 uM)?
Answer: −0.712

Question: For `Cc1ccc(S(=O)(=O)c2ccc([N+](=O)[O-])o2)cc1` [NSC697923], which Dose.FC.LYZ.S [1, 7] is on record?
Answer: 0.036 log2 fold change

Question: And the Dose.FC.LYZ.S [1, 8]?
Answer: 0.108 log2 fold change

Question: What about the Dose.FC.LYZ.S [1, 9] of the same compound?
Answer: −0.154 log2 fold change

Question: And the Dose.FC.LYZ.S [1, 10]?
Answer: −0.270 log2 fold change

Question: What about the Z.CTG (ENR+CD organoids; dose 0.08 uM) of the same compound?
Answer: −0.123

Question: What about the Z.CTG (ENR+CD organoids; dose 0.40 uM) of the same compound?
Answer: −0.033

Question: And the Z.CTG (ENR+CD organoids; dose 2.00 uM)?
Answer: −0.241

Question: What about the Z.CTG (ENR+CD organoids; dose 10.00 uM) of the same compound?
Answer: −1.867

Question: What about the Dose.FC.CTG (ENR+CD organoids; [7]) of the same compound?
Answer: −0.052 log2 fold change

Question: And the Dose.FC.CTG (ENR+CD organoids; [8])?
Answer: −0.014 log2 fold change

Question: What about the Dose.FC.CTG (ENR+CD organoids; [9]) of the same compound?
Answer: −0.101 log2 fold change

Question: And the Dose.FC.CTG (ENR+CD organoids; [10])?
Answer: −0.782 log2 fold change

Question: What about the Z.LYZ.NS ([2]; dose 0.08 uM) of the same compound?
Answer: 0.789

Question: And the Z.LYZ.NS ([2]; dose 0.40 uM)?
Answer: 0.441

Question: And the Z.LYZ.NS ([2]; dose 2.00 uM)?
Answer: −0.906

Question: What about the Z.LYZ.NS ([2]; dose 10.00 uM) of the same compound?
Answer: −1.338

Question: What about the Dose.FC.LYZ.NS [2, 7] of the same compound?
Answer: 0.091 log2 fold change

Question: And the Dose.FC.LYZ.NS [2, 8]?
Answer: 0.051 log2 fold change

Question: And the Dose.FC.LYZ.NS [2, 9]?
Answer: −0.104 log2 fold change

Question: What about the Dose.FC.LYZ.NS [2, 10] of the same compound?
Answer: −0.154 log2 fold change

Question: With `CN1CCCCC1Cn1cc(C(=O)c2cc([N+](=O)[O-])ccc2I)c2ccccc21` (stereo not shown) [AM1241] as the compound, how does the Dose.FC.LYZ.S ([1]; dose 0.08 uM) read?
Answer: 0.046 log2 fold change

Question: And the Dose.FC.LYZ.S ([1]; dose 0.40 uM)?
Answer: 0.088 log2 fold change

Question: And the Dose.FC.LYZ.S ([1]; dose 2.00 uM)?
Answer: −0.017 log2 fold change

Question: And the Dose.FC.LYZ.S ([1]; dose 10.00 uM)?
Answer: −0.080 log2 fold change

Question: And the Dose.FC.CTG (ENR+CD organoids; dose 0.08 uM)?
Answer: 0.159 log2 fold change

Question: And the “Z.CTG (standard z score)” value (ENR+CD organoids; dose 0.08 uM)?
Answer: 0.379

Question: And the Dose.FC.CTG (ENR+CD organoids; dose 0.40 uM)?
Answer: −0.054 log2 fold change

Question: What about the “Z.CTG (standard z score)” value (ENR+CD organoids; dose 0.40 uM) of the same compound?
Answer: −0.129

Question: What about the Dose.FC.CTG (ENR+CD organoids; dose 2.00 uM) of the same compound?
Answer: −0.062 log2 fold change

Question: What about the “Z.CTG (standard z score)” value (ENR+CD organoids; dose 2.00 uM) of the same compound?
Answer: −0.147

Question: What about the Dose.FC.CTG (ENR+CD organoids; dose 10.00 uM) of the same compound?
Answer: −0.001 log2 fold change

Question: And the “Z.CTG (standard z score)” value (ENR+CD organoids; dose 10.00 uM)?
Answer: −0.002

Question: What about the Dose.FC.LYZ.NS ([2]; dose 0.08 uM) of the same compound?
Answer: 0.052 log2 fold change

Question: And the “Z.LYZ.NS (standard z score)” value ([2]; dose 0.08 uM)?
Answer: 0.454

Question: What about the Dose.FC.LYZ.NS ([2]; dose 0.40 uM) of the same compound?
Answer: 0.004 log2 fold change

Question: What about the “Z.LYZ.NS (standard z score)” value ([2]; dose 0.40 uM) of the same compound?
Answer: 0.035

Question: And the Dose.FC.LYZ.NS ([2]; dose 2.00 uM)?
Answer: −0.014 log2 fold change

Question: And the “Z.LYZ.NS (standard z score)” value ([2]; dose 2.00 uM)?
Answer: −0.123

Question: And the Dose.FC.LYZ.NS ([2]; dose 10.00 uM)?
Answer: −0.003 log2 fold change

Question: And the “Z.LYZ.NS (standard z score)” value ([2]; dose 10.00 uM)?
Answer: −0.028
